# Results published in ChEMBL document CHEMBL1137093, “Synthesis, receptor binding and functional studies of mesoridazine stereoisomers” (Bioorg Med Chem Lett, 2004).
# Several values for one entry are separate records, joined by “and”; a condition that tells them apart may be missing. Equal entries are not always repeated.
# Experiments:
# [1] = target: T1, D(1A) dopamine receptor (Homo sapiens, UniProt P21728); test: Antagonism of D1 dopamine receptor of human was determined in C6D1 low-density cells by using cyclic AMP assay
# [2] = Antagonism was determined as concentration required to inhibit quinpirole-induced mitogenesis in CHOp cells
# [3] = target: T2, 5-hydroxytryptamine receptor 2A (Rattus norvegicus, UniProt P14842); test: Binding affinity towards rat 5-hydroxytryptamine 2A receptor was determined by using [3H]-ketanserin as radioligand
# [4] = target: T3, 5-hydroxytryptamine receptor 1A (Homo sapiens, UniProt P08908); test: Binding affinity towards human 5-hydroxytryptamine 1A receptor was determined by using [3H]8-OH-DPAT as radioligand
# T3 sequence (P08908 whole entry): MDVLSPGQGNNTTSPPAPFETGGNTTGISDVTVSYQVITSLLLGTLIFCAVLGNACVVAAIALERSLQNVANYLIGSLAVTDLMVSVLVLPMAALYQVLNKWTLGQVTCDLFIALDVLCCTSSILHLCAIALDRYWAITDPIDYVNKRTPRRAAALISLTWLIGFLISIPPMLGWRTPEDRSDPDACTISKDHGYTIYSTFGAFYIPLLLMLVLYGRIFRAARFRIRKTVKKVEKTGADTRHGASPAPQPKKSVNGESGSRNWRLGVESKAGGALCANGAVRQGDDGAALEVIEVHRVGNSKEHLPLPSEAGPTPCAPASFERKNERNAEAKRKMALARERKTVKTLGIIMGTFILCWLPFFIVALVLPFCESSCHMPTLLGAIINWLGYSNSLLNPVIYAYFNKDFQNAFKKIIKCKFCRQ
# [5] = target: T4, 5-hydroxytryptamine receptor 2C (Rattus norvegicus, UniProt P08909); test: Binding affinity towards rat 5-hydroxytryptamine 2C receptor was determined by using [3H]mesulergine as radioligand
# T4 sequence (P08909 whole entry): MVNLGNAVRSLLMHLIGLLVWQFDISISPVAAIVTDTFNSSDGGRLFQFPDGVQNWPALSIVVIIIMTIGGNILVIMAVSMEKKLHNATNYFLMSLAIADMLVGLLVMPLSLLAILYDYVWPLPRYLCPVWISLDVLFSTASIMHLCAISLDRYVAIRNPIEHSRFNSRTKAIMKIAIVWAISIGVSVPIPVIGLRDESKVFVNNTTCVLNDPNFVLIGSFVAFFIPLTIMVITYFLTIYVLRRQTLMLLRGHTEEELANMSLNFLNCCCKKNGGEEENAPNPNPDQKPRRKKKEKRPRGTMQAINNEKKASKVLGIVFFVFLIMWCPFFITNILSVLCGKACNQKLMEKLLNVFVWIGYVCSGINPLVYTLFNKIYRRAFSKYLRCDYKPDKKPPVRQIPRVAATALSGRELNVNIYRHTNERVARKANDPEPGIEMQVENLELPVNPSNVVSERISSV
# [6] = target: T1, D(1A) dopamine receptor
# Description: Binding affinity towards human D1 dopamine receptor was determined by using [3H]-SCH- 23390 as radioligand
# [7] = target: T5, D(2) dopamine receptor (Homo sapiens, UniProt P14416)
# Description: Binding affinity towards human D2 dopamine receptor was determined by using [3H]YM-09151-2 as radioligand
# [8] = target: D(3) dopamine receptor (Homo sapiens, UniProt P35462)
# Description: Binding affinity towards human D3 dopamine receptor was determined by using [3H]YM-09151-2 as radioligand
# [9] = target: 5-hydroxytryptamine receptor 2A (Rattus norvegicus) (UniProt P14842)
# [10] = target: T2, 5-hydroxytryptamine receptor 2A; test: Antagonism of 5-hydroxytryptamine 2A receptor was determined using rat aortal strip contraction assay
# [11] = target: T5, D(2) dopamine receptor; remark: listed apart in the source
# Description: Concentration required to inhibit [3H]YM-09151-2 binding to human D2 dopamine receptor
# [12] = target: T5, D(2) dopamine receptor; remark: listed apart in the source
# [13] = target: T5, D(2) dopamine receptor; remark: listed apart in the source
# Description: High binding affinity towards human D2 dopamine receptor was determined by using [3H]YM-09151-2 as radioligand
# D(3) dopamine receptor, sequence (P35462 whole entry): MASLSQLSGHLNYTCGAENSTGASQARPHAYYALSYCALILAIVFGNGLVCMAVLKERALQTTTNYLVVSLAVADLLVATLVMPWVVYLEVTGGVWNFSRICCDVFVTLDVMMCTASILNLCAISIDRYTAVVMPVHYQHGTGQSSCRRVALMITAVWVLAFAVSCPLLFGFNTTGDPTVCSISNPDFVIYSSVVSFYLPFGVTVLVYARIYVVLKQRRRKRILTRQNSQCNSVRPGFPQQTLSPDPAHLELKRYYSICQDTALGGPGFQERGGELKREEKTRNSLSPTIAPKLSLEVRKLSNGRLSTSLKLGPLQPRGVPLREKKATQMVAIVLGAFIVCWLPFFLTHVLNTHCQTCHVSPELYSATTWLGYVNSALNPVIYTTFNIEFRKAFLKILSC
# T2 sequence (P14842 whole entry): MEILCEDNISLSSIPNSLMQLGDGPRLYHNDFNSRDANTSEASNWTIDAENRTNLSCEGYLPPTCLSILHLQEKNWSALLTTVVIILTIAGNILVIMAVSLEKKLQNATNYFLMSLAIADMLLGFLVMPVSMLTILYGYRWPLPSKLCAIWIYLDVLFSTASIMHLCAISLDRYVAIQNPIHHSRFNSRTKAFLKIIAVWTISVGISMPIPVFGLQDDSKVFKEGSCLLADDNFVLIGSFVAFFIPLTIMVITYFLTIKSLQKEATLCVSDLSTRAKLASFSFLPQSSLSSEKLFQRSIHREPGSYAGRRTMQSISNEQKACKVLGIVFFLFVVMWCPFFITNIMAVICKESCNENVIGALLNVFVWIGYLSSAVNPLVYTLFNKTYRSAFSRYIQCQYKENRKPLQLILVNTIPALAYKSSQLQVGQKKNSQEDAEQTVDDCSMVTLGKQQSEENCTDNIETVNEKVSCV
# 5-hydroxytryptamine receptor 2A (Rattus norvegicus), sequence (P14842 whole entry): as above
# T1 sequence (P21728 whole entry): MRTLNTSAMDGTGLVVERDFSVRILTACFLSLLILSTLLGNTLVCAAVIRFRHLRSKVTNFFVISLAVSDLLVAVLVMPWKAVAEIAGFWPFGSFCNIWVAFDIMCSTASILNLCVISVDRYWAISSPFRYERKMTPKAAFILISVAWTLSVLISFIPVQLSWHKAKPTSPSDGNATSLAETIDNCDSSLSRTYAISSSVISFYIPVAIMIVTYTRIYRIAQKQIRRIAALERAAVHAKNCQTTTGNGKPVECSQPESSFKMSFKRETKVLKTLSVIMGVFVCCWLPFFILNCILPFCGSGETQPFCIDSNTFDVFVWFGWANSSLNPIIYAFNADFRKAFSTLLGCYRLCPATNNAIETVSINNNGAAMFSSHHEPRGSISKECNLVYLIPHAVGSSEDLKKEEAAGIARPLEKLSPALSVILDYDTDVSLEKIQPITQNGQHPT
# T5 sequence (P14416 whole entry): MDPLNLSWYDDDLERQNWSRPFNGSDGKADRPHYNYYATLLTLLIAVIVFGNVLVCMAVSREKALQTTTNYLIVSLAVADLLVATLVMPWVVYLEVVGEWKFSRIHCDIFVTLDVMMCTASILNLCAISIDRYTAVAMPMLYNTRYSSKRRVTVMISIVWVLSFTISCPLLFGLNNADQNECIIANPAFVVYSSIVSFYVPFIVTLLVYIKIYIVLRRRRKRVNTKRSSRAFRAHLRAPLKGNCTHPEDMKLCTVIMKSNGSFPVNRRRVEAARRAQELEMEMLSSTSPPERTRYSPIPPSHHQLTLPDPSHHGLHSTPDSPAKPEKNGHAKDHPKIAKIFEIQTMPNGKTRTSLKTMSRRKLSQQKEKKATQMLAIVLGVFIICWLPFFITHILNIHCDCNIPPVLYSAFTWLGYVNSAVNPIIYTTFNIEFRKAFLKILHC
Compound,IC50 [1],IC50 [2],Ki [3],Ki [4],Ki [5],Ki [6],Ki [7],Ki [8],Ke [9],Kb [10],IC50 [11],Ki [12],Ki [13]
CN1CCCC[C@H]1CCN1c2ccccc2Sc2ccc([S@](C)=O)cc21,1250 nM,232 nM and 408 nM,414 nM,395 nM,410 nM,620 nM,426 nM,197 nM,–,–,–,–,–
"CN1CCCCC1CCN1c2ccccc2Sc2ccc([S+](C)[O-])cc21 (single isomer, unassigned; 2) [listing 1 of 2 here]",–,–,–,–,–,–,–,–,7 nM,–,–,–,–
CN1CCCC[C@@H]1CCN1c2ccccc2Sc2ccc([S@@](C)=O)cc21,460 nM,4 nM and 16 nM,19 nM,64 nM,112 nM,317 nM,–,26 nM,2.5 nM,2.51 nM,63 nM,1840 nM,1.2 nM

# Continued, values first:
IC50 [1],IC50 [2],Ki [3],Ki [4],Ki [5],Ki [6],Ki [7],Ki [8],Ke [9],Kb [10],IC50 [11],Ki [12],Ki [13],Compound
–,161 nM and 256 nM,112 nM,349 nM,704 nM,1960 nM,304 nM,95 nM,–,25.1 nM,837 nM,–,–,"CN1CCCCC1CCN1c2ccccc2Sc2ccc([S+](C)[O-])cc21 (single isomer, unassigned; 3) [listing 1 of 2 here]"
–,–,–,–,–,–,–,–,28 nM,–,–,–,–,"CN1CCCCC1CCN1c2ccccc2Sc2ccc([S+](C)[O-])cc21 (single isomer, unassigned; 3) [listing 2 of 2 here]"
137 nM,10 nM and 35 nM,55 nM,105 nM,412 nM,103 nM,–,23 nM,–,6.31 nM,77 nM,1540 nM,2.2 nM,"CN1CCCCC1CCN1c2ccccc2Sc2ccc([S+](C)[O-])cc21 (single isomer, unassigned; 2) [listing 2 of 2 here]"
